From publication PMC9525273 (Nature Communications, 2022)
Several values for one entry are separate records, joined by “and”; a condition that tells them apart may be missing. Equal entries are not always repeated. Where two headings read alike, the source gives them in different places.

How the values were obtained:
Test in all cases: P. falciparum proliferation assay (72 h, fluorescent DNA-intercalating dye)
Assay type in all cases: cell-based, Plasmodium falciparum
[1] = test system: Dd2-PfATP4^T418N,P990R parasites; settings: for Parasite proliferation (% of no-cipargamin control), MEAN: MEAN of 16 experiments
Description: (§1) For experiments with all other parasites, the effects of compounds of interest on parasite proliferation was measured in 96-well plates containing serial dilutions of the compounds in culture medium, with a fluorescent DNA-intercalating dye used to detect surviving parasites. The assays were initiated with erythrocytes infected with predominantly ring-stage parasites, and the starting parasitaemia and haematocrit were both 1%.

[2] = test system: Dd2 parasites; settings: for Parasite proliferation (% of no-cipargamin control), MEAN: MEAN of 16 experiments
Description: as §1

[3] = test system: HCR2 parasites (highly cipargamin-resistant clone 2); settings: for Parasite proliferation (% of no-cipargamin control), MEAN: MEAN of 16 experiments
Description: as §1

[4] = test system: HCR1 parasites (highly cipargamin-resistant clone 1); settings: for Parasite proliferation (% of no-cipargamin control), MEAN: MEAN of 16 experiments
Description: as §1

[5] = test system: Dd2-Polδ parasites
Description: as §1

[6] = test system: Dd2-Polδ-PfATP4^G358S parasites
Description: as §1

C[C@H]1Cc2c([nH]c3cc(Cl)c(F)cc23)[C@@]2(N1)C(=O)Nc1ccc(Cl)cc12 [Cipargamin] was tested, and the “Parasite proliferation (% of no-cipargamin control), MEAN” value ([1]; Dd2-PfATP4T418N,P990R, [Cipargamin] 0.195312 nM) was 100.7 % of no-cipargamin control, the “Parasite proliferation (% of no-cipargamin control), MEAN” value ([1]; Dd2-PfATP4T418N,P990R, [Cipargamin] 0.390625 nM) was 102.0 % of no-cipargamin control and the “Parasite proliferation (% of no-cipargamin control), MEAN” value ([1]; Dd2-PfATP4T418N,P990R, [Cipargamin] 0.78125 nM) was 99.8 % of no-cipargamin control. For the same compound, the “Parasite proliferation (% of no-cipargamin control), MEAN” value ([1]; Dd2-PfATP4T418N,P990R, [Cipargamin] 1.5625 nM) was 99.9 % of no-cipargamin control, the “Parasite proliferation (% of no-cipargamin control), MEAN” value ([1]; Dd2-PfATP4T418N,P990R, [Cipargamin] 3.125 nM) was 94.7 % of no-cipargamin control and the “Parasite proliferation (% of no-cipargamin control), MEAN” value ([1]; Dd2-PfATP4T418N,P990R, [Cipargamin] 6.25 nM) was 78.8 % of no-cipargamin control. The “Parasite proliferation (% of no-cipargamin control), MEAN” value ([1]; Dd2-PfATP4T418N,P990R, [Cipargamin] 25 nM) was 1.2 % of no-cipargamin control, the IC50 ([1]; Dd2-PfATP4T418N,P990R, single experiments, source data of Fig. 2 (nM in Supplementary Table 1), read-out: IC50 values) was 7.9 nM and the IC50 ([1]; Plasmodium falciparum, DD2, Dd2-PfATP4T418N,P990R, MEAN, source data of Fig. 2, read-out: IC50 values, MEAN) was 9.17 nM. For the same compound, the IC50 ([1]; Plasmodium falciparum, DD2, Dd2-PfATP4T418N,P990R, Supplementary Table 1, Set 1, read-out: Mean IC50 value ± SEM for growth inhibition) was < 10 nM, the “Mean IC50 value ± SEM for growth inhibition” value ([2]; Dd2, Supplementary Table 1, Set 1) was “subnanomolar” and the “Parasite proliferation (% of no-cipargamin control), MEAN” value ([2]; Dd2, [Cipargamin] 0.195312 nM) was 100.9 % of no-cipargamin control. The “Parasite proliferation (% of no-cipargamin control), MEAN” value ([2]; Dd2, [Cipargamin] 0.390625 nM) was 94.5 % of no-cipargamin control, the “Parasite proliferation (% of no-cipargamin control), MEAN” value ([2]; Dd2, [Cipargamin] 0.78125 nM) was 30.2 % of no-cipargamin control and the “Parasite proliferation (% of no-cipargamin control), MEAN” value ([2]; Dd2, [Cipargamin] 1.5625 nM) was 3.4 % of no-cipargamin control. The “Parasite proliferation (% of no-cipargamin control), MEAN” value ([2]; Dd2, [Cipargamin] 3.125 nM) was 0.3 % of no-cipargamin control, the “Parasite proliferation (% of no-cipargamin control), MEAN” value ([2]; Dd2, [Cipargamin] 6.25 nM) was 0.5 % of no-cipargamin control and the “Parasite proliferation (% of no-cipargamin control), MEAN” value ([2]; Dd2, [Cipargamin] 25 nM) was 0.0247 % of no-cipargamin control. The IC50 ([2]; Plasmodium falciparum, DD2, read-out: IC50 values, MEAN, Dd2, MEAN, source data of Fig. 2) was 0.68 nM, the “Parasite proliferation (% of no-cipargamin control), MEAN” value ([3]; HCR2, [Cipargamin] 100 nM) was 99.1 % of no-cipargamin control and the “Parasite proliferation (% of no-cipargamin control)” value ([3]; HCR2, [Cipargamin] 100 nM, single experiments 1-16) was 100.1 % of no-cipargamin control and 100.0 % of no-cipargamin control and 96.3 % of no-cipargamin control and 89.0 % of no-cipargamin control. For the same compound, the “Parasite proliferation (% of no-cipargamin control), MEAN” value ([3]; HCR2, [Cipargamin] 200 nM) was 93.8 % of no-cipargamin control, the “Parasite proliferation (% of no-cipargamin control), MEAN” value ([3]; HCR2, [Cipargamin] 400 nM) was 90.7 % of no-cipargamin control and the “Parasite proliferation (% of no-cipargamin control), MEAN” value ([3]; HCR2, [Cipargamin] 800 nM) was 85.4 % of no-cipargamin control. The “Parasite proliferation (% of no-cipargamin control), MEAN” value ([3]; HCR2, [Cipargamin] 1600 nM) was 71.9 % of no-cipargamin control, the “Parasite proliferation (% of no-cipargamin control), MEAN” value ([3]; HCR2, [Cipargamin] 3200 nM) was 46.7 % of no-cipargamin control and the “Parasite proliferation (% of no-cipargamin control), MEAN” value ([3]; HCR2, [Cipargamin] 6400 nM) was 13.6 % of no-cipargamin control. The “Parasite proliferation (% of no-cipargamin control), MEAN” value ([3]; HCR2, [Cipargamin] 25600 nM) was -0.466 % of no-cipargamin control, the IC50 ([3]; Plasmodium falciparum, HCR2, MEAN, source data of Fig. 2, read-out: IC50 values, MEAN) was 2920 nM and the IC50 ([3]; Plasmodium falciparum, read-out: Mean IC50 value ± SEM for growth inhibition, HCR2, Supplementary Table 1, Set 1) was 2920 ± 200 nM. For the same compound, the “Parasite proliferation (% of no-cipargamin control), MEAN” value ([4]; HCR1, [Cipargamin] 100 nM) was 98.5 % of no-cipargamin control, the “Parasite proliferation (% of no-cipargamin control)” value ([4]; HCR1, [Cipargamin] 100 nM, single experiments 1-16) was 100.9 % of no-cipargamin control and 100.0 % of no-cipargamin control and 87.1 % of no-cipargamin control and 88.2 % of no-cipargamin control and the “Parasite proliferation (% of no-cipargamin control), MEAN” value ([4]; HCR1, [Cipargamin] 200 nM) was 94.4 % of no-cipargamin control. For the same compound, the “Parasite proliferation (% of no-cipargamin control), MEAN” value ([4]; HCR1, [Cipargamin] 400 nM) was 91.8 % of no-cipargamin control, the “Parasite proliferation (% of no-cipargamin control), MEAN” value ([4]; HCR1, [Cipargamin] 800 nM) was 83.6 % of no-cipargamin control and the “Parasite proliferation (% of no-cipargamin control), MEAN” value ([4]; HCR1, [Cipargamin] 1600 nM) was 71.5 % of no-cipargamin control. The “Parasite proliferation (% of no-cipargamin control), MEAN” value ([4]; HCR1, [Cipargamin] 3200 nM) was 44.9 % of no-cipargamin control, the “Parasite proliferation (% of no-cipargamin control), MEAN” value ([4]; HCR1, [Cipargamin] 6400 nM) was 13.3 % of no-cipargamin control and the “Parasite proliferation (% of no-cipargamin control), MEAN” value ([4]; HCR1, [Cipargamin] 25600 nM) was -0.564 % of no-cipargamin control. It also gave an IC50 ([4]; Plasmodium falciparum, HCR1, MEAN, source data of Fig. 2, read-out: IC50 values, MEAN) of 2840 nM, an IC50 ([4]; Plasmodium falciparum, read-out: Mean IC50 value ± SEM for growth inhibition, HCR1, Supplementary Table 1, Set 1) of 2840 ± 190 nM and an IC50 ([5]; Dd2-Polδ, single experiments, source data of Fig. 2 (nM in Supplementary Table 1), read-out: IC50 values) of 1.4 nM. The IC50 ([5]; Plasmodium falciparum, DD2, Dd2-Polδ, MEAN, source data of Fig. 2, read-out: IC50 values, MEAN) was 1.43 nM, the IC50 ([5]; Plasmodium falciparum, DD2, parental Dd2-Polδ, paired with MMV665949-selected Culture 1, n = 3, read-out: IC50 value) was 0.57 ± 0.02 nM and the IC50 ([6]; Dd2-Polδ-PfATP4G358S, single experiments, source data of Fig. 2 (nM in Supplementary Table 1), read-out: IC50 values) was 1140 nM and 1420 nM and 1580 nM and 1640 nM and 1670 nM and 1510 nM. The IC50 ([6]; Plasmodium falciparum, DD2, Dd2-Polδ-PfATP4G358S, MEAN, source data of Fig. 2, read-out: IC50 values, MEAN) was 1420 nM and the IC50 ([6]; Plasmodium falciparum, DD2, Dd2-Polδ-PfATP4G358S, single experiments, source data of Fig. 2 (nM in Supplementary Table 1), read-out: IC50 values) was 980 nM.
For C[C@H]1[C@@H](O)O[C@@H]2O[C@@]3(C)CC[C@H]4[C@H](C)CC[C@@H]1[C@@]24OO3 [Dihydroartemisinin], the IC50 ([1]; Plasmodium falciparum, DD2, read-out: Dihydroartemisinin IC50 values, Dd2-PfATP4T418N,P990R, MEAN) was 2.44 nM, the IC50 ([1]; Plasmodium falciparum, DD2, read-out: Dihydroartemisinin IC50 values, Dd2-PfATP4T418N,P990R, single experiments) was 2.1 nM and the IC50 ([1]; read-out: Dihydroartemisinin IC50 values, Dd2-PfATP4T418N,P990R, single experiments) was 2.01 nM and 2.76 nM and 2.9 nM. The IC50 ([2]; Plasmodium falciparum, DD2, read-out: Dihydroartemisinin IC50 values, Dd2, MEAN) was 2.17 nM, the IC50 ([2]; Plasmodium falciparum, DD2, read-out: Dihydroartemisinin IC50 values, Dd2, single experiments) was 1.79 nM and the IC50 ([2]; read-out: Dihydroartemisinin IC50 values, Dd2, single experiments) was 1.66 nM and 2.87 nM and 2.36 nM. The IC50 ([3]; Plasmodium falciparum, read-out: Dihydroartemisinin IC50 values, HCR2, MEAN) was 1.51 nM, the IC50 ([3]; Plasmodium falciparum, read-out: Dihydroartemisinin IC50 values, HCR2, single experiments) was 1.46 nM and the IC50 ([3]; read-out: Dihydroartemisinin IC50 values, HCR2, single experiments) was 1.62 nM and 1.77 nM and 1.19 nM. The IC50 ([4]; Plasmodium falciparum, read-out: Dihydroartemisinin IC50 values, HCR1, MEAN) was 1.55 nM, the IC50 ([4]; read-out: Dihydroartemisinin IC50 values, HCR1, single experiments) was 1.37 nM and 2.01 nM and 1.76 nM and the IC50 ([5]; Plasmodium falciparum, DD2, read-out: Dihydroartemisinin IC50 values, Dd2-Polδ, MEAN) was 2.15 nM. For the same compound, the IC50 ([5]; Plasmodium falciparum, DD2, read-out: Dihydroartemisinin IC50 values, Dd2-Polδ, single experiments) was 2.08 nM, the IC50 ([5]; read-out: Dihydroartemisinin IC50 values, Dd2-Polδ, single experiments) was 2.37 nM and 1.58 nM and 2.55 nM and the IC50 ([6]; Plasmodium falciparum, DD2, read-out: Dihydroartemisinin IC50 values, Dd2-Polδ-PfATP4G358S, MEAN) was 2.58 nM. The IC50 ([6]; Plasmodium falciparum, DD2, read-out: Dihydroartemisinin IC50 values, Dd2-Polδ-PfATP4G358S, single experiments) was 2.3 nM and the IC50 ([6]; read-out: Dihydroartemisinin IC50 values, Dd2-Polδ-PfATP4G358S, single experiments) was 2.08 nM and 3.3 nM and 2.66 nM.
